# ChEMBL document CHEMBL1132398, “Identification of (-)-cis-6-acetyl-4S-(3-chloro-4-fluoro-benzoylamino)- 3,4-dihydro-2,2-dimethyl-2H-benzo[b]pyran-3S-ol as a potential antimigraine agent” (Bioorg Med Chem Lett, 1999)
# Assays:
# Rattus norvegicus [1] = experiment: In vivo percent increase in seizure threshold in rat MEST model at the dose of 3 mg/kg p.o. recorded 6 hr post dose; type: functional; conditions: route oral
# Rattus norvegicus [2] = experiment: In vivo percent increase in seizure threshold in rat MEST model at the dose of 3 mg/kg p.o. recorded 1 hr post dose; type: functional; conditions: route oral
# Rattus norvegicus [3] = experiment: In vivo percent increase in seizure threshold in rat MEST model at the dose of 3 mg/kg p.o. recorded 4 hr post dose; type: functional; conditions: route oral
# Rattus norvegicus [4] = experiment: In vivo percent increase in seizure threshold in rat MEST model at the dose of 3 mg/kg p.o. recorded 0.25 hr post dose; type: functional; conditions: route oral
# Rattus norvegicus [5] = experiment: In vivo percent increase in seizure threshold in rat MEST model at the dose of 3 mg/kg p.o. recorded 0.5 hr post dose; type: functional; conditions: route oral
# Rattus norvegicus [6] = experiment: In vivo percent increase in seizure threshold in rat MEST model at the dose of 3 mg/kg p.o. recorded 2 hr post dose; type: functional; conditions: route oral
# Rattus norvegicus [7] = species on record: Rattus norvegicus; experiment: Ability to displace [3H]- SB-204269 in the rat forebrain
# Mus musculus [8] = experiment: In vivo percent increase in seizure threshold in mouse MEST model 1 hour following 10 mg/kg p.o.; conditions: at 10 mg/kg
# Mus musculus [9] = experiment: In vivo percent increase in seizure threshold in mouse MEST model 4 hours following 10 mg/kg p.o.; conditions: at 10 mg/kg
# Rattus norvegicus [10] = experiment: In vivo percent increase in seizure threshold in rat MEST model at the dose of 10 mg/kg p.o. recorded 2 hr post dose; type: functional; conditions: route oral
# Rattus norvegicus [11] = experiment: In vivo percent increase in seizure threshold in rat MEST model at the dose of 10 mg/kg p.o. recorded 6 hr post dose; type: functional; conditions: route oral
# Rattus norvegicus [12] = experiment: In vivo percent increase in seizure threshold in rat MEST model at the dose of 10 mg/kg p.o. recorded 1 hr post dose; type: functional; conditions: route oral
# Rattus norvegicus [13] = experiment: In vivo percent increase in seizure threshold in rat MEST model at the dose of 10 mg/kg p.o. recorded 0.25 hr post dose; type: functional; conditions: route oral
# Rattus norvegicus [14] = experiment: In vivo percent increase in seizure threshold in rat MEST model at the dose of 10 mg/kg p.o. recorded 0.5 hr post dose; type: functional; conditions: route oral
smiles,measurement,setting,value
CC(=O)c1ccc2c(c1)[C@H](NC(=O)c1ccc(F)c(Cl)c1)[C@H](O)C(C)(C)O2 [TONABERSAT],Increase,Rattus norvegicus [1],638%
same,Increase,Rattus norvegicus [2],369%
same,Increase,Rattus norvegicus [3],533%
same,Increase,Rattus norvegicus [4],76%
same,Increase,Rattus norvegicus [5],202%
same,Increase,Rattus norvegicus [6],576%
same,Log Ki,Rattus norvegicus [7],-7.9
CC(=O)c1ccc2c(c1)[C@H](NC(=O)c1cnccn1)[C@@H](O)C(C)(C)O2,Increase,Mus musculus [8],15%
CC(=O)c1ccc2c(c1)[C@H](NC(=O)c1ccsc1Cl)[C@@H](O)C(C)(C)O2,Increase,Mus musculus [9],519%
same,Increase,Mus musculus [8],95%
CC(=O)c1ccc2c(c1)[C@H](NC(=O)c1ccsc1)[C@@H](O)C(C)(C)O2,Increase,Mus musculus [8],50%
CC(=O)c1ccc2c(c1)[C@H](NC(=O)c1cccnc1)[C@@H](O)C(C)(C)O2,Increase,Mus musculus [8],30%
CC(=O)c1ccc2c(c1)[C@@H](NC(=O)c1cccc(Cl)c1)[C@@H](O)C(C)(C)O2,Log Ki,Rattus norvegicus [7],> -5.4
CC(=O)c1ccc2c(c1)[C@H](NC(=O)c1ccc(F)cc1Cl)[C@@H](O)C(C)(C)O2,Increase,Mus musculus [9],1080%
same,Increase,Rattus norvegicus [1],1060%
same,Increase,Mus musculus [8],162%
same,Increase,Rattus norvegicus [2],300%
same,Increase,Rattus norvegicus [3],900%
same,Increase,Rattus norvegicus [4],90%
same,Increase,Rattus norvegicus [5],208%
same,Increase,Rattus norvegicus [6],660%
CC(=O)c1ccc2c(c1)[C@H](NC(=O)c1ccc(F)cc1)[C@@H](O)C(C)(C)O2 [CARABERSAT],Increase,Rattus norvegicus [10],420%
same,Increase,Rattus norvegicus [11],390%
same,Increase,Rattus norvegicus [12],180%
same,Increase,Rattus norvegicus [13],48%
same,Increase,Rattus norvegicus [14],90%
same,Log Ki,Rattus norvegicus [7],-7.3
CC(=O)c1ccc2c(c1)[C@H](NC(=O)c1cccc(Cl)c1)[C@H](O)C(C)(C)O2,Increase,Mus musculus [9],604%
same,Increase,Mus musculus [8],93%
CC(=O)c1ccc2c(c1)[C@H](NC(=O)c1cc(Cl)cc(Cl)c1Cl)[C@@H](O)C(C)(C)O2,Increase,Mus musculus [8],33%
CC(=O)c1ccc2c(c1)[C@H](NC(=O)c1ccsc1Cl)[C@H](O)C(C)(C)O2,Increase,Mus musculus [9],383%
same,Increase,Mus musculus [8],47%
same,Log Ki,Rattus norvegicus [7],-7.5
CC(=O)c1ccc2c(c1)[C@H](NC(=O)c1cccc(Cl)c1Cl)[C@@H](O)C(C)(C)O2,Increase,Rattus norvegicus [10],1124%
same,Increase,Rattus norvegicus [11],1076%
same,Increase,Rattus norvegicus [12],880%
same,Increase,Rattus norvegicus [13],104%
same,Increase,Rattus norvegicus [14],286%
CC(=O)c1ccc2c(c1)[C@H](NC(=O)c1ccc(F)cc1Cl)[C@H](O)C(C)(C)O2,Increase,Mus musculus [9],269%
same,Increase,Mus musculus [8],153%
same,Log Ki,Rattus norvegicus [7],-7.2
CC(=O)c1ccc2c(c1)[C@H](NC(=O)c1cccc(Cl)c1)[C@@H](O)C(C)(C)O2,Increase,Rattus norvegicus [10],796%
same,Increase,Mus musculus [9],945%
same,Increase,Mus musculus [8],90%
same,Increase,Rattus norvegicus [11],983%
same,Increase,Rattus norvegicus [12],507%
same,Increase,Rattus norvegicus [13],157%
same,Increase,Rattus norvegicus [14],273%
CC(=O)c1ccc2c(c1)[C@H](NC(=O)c1c(Cl)cccc1Cl)[C@@H](O)C(C)(C)O2,Increase,Mus musculus [8],10%
